Laboratory results reported in ChEMBL document CHEMBL3885861, “Open TG-GATES”.

Species: Rattus norvegicus
Assay: Open TG-GATES - Regimen: Daily Repeat
Format: toxicity, organism-based, Sprague-Dawley
Design: regimen Daily Repeat, gender Male, age 6 weeks
Settings: in vivo, po, route gavage; for APTT / Bas / Eos / Fbg / Hb / Ht / Lym / MCH / MCHC / MCV / Mono / Neu / PT / Plat / RBC / Ret / WBC: tissue Blood; for KIDNEY_L / KIDNEY_R / KIDNEY_TOTAL: tissue Kidney; for LIVER: tissue Liver; for A/G / ALP / ALT / AST / BUN / CRE / Ca / Cl / DBIL / GLC / IP / K / LDH / Na / PL / RALB / TBIL / TC / TG / TP / gamma-GTP: tissue Plasma
[1] = 0 mg/kg, 72 h, dose level Control, time 3 day
[2] = 0 mg/kg, […], dose level Control, time 7 day
[3] = 0 mg/kg, […], dose level Control, time 14 day
[4] = 0 mg/kg, […], dose level Control, time 28 day
[5] = 400 mg/kg, 72 h, dose level Low, time 3 day
[6] = 400 mg/kg, […], dose level Low, time 7 day
[7] = 400 mg/kg, […], dose level Low, time 14 day
[8] = 400 mg/kg, […], dose level Low, time 28 day

## CCO [ALCOHOL]
[1]
  TERMINAL_BW: 232.9 g
  APTT: 17.2 s
  Bas: 0%
  Eos: 1%
  Fbg: 205.6 mg/dL
  Hb: 14.1 g/dL
  Ht: 41.9%
  Lym: 77%
  MCH: 21.5 pg
  MCHC: 33.7%
  MCV: 63.8 fL
  Mono: 6%
  Neu: 16%
  PT: 11 s
  Plat: 112.5 x10_4/uL
  RBC: 656.4 x10_4/ul
  Ret: 6.7%
  WBC: 82.3 x10_2/uL
  KIDNEY_L: 1 g
  KIDNEY_R: 1 g
  KIDNEY_TOTAL: 2 g
  LIVER: 11.2 g
  A/G: 2.2
  ALP: 935.2 IU/L
  ALT: 39.6 IU/L
  AST: 61.8 IU/L
  BUN: 19.6 mg/dL
  CRE: 0.6 mg/dL
  Ca: 10.9 mg/dL
  Cl: 104.2 meq/L
  DBIL: 0.04 mg/dL
  GLC: 210.6 mg/dL
  IP: 8.7 mg/dL
  K: 4.6 meq/L
  LDH: 75.8 IU/L
  Na: 141 meq/L
  PL: 160.6 mg/dL
  RALB: 3.9 g/dL
  TBIL: 0.3 mg/dL
  TC: 83.8 mg/dL
  TG: 101 mg/dL
  TP: 5.7 g/dL
  gamma-GTP: 1.2 IU/L
[2]
  TERMINAL_BW: 263.1 g
  APTT: 17 s
  Bas: 0%
  Eos: 1.2%
  Fbg: 212.6 mg/dL
  Hb: 14.2 g/dL
  Ht: 42.2%
  Lym: 84.2%
  MCH: 20.7 pg
  MCHC: 33.7%
  MCV: 61.5 fL
  Mono: 4%
  Neu: 10.6%
  PT: 11.1 s
  Plat: 127.1 x10_4/uL
  RBC: 687.8 x10_4/ul
  Ret: 5.2%
  WBC: 114.9 x10_2/uL
  KIDNEY_L: 1.1 g
  KIDNEY_R: 1.2 g
  KIDNEY_TOTAL: 2.3 g
  LIVER: 11.9 g
  A/G: 2.2
  ALP: 783 IU/L
  ALT: 33.6 IU/L
  AST: 62 IU/L
  BUN: 20.4 mg/dL
  CRE: 0.5 mg/dL
  Ca: 10.4 mg/dL
  Cl: 105.6 meq/L
  DBIL: 0.006 mg/dL
  GLC: 197.8 mg/dL
  IP: 7.5 mg/dL
  K: 4.7 meq/L
  LDH: 81.2 IU/L
  Na: 141.4 meq/L
  PL: 143.6 mg/dL
  RALB: 4 g/dL
  TBIL: 0.4 mg/dL
  TC: 71.4 mg/dL
  TG: 108 mg/dL
  TP: 5.7 g/dL
  gamma-GTP: 0.8 IU/L
[3]
  TERMINAL_BW: 302.6 g
  APTT: 19.1 s
  Bas: 0%
  Eos: 1%
  Fbg: 211.2 mg/dL
  Hb: 15.2 g/dL
  Ht: 44.7%
  Lym: 81.4%
  MCH: 20.3 pg
  MCHC: 33.9%
  MCV: 59.9 fL
  Mono: 4.2%
  Neu: 13.4%
  PT: 11.4 s
  Plat: 110 x10_4/uL
  RBC: 746.4 x10_4/ul
  Ret: 4.3%
  WBC: 102.7 x10_2/uL
  KIDNEY_L: 1.2 g
  KIDNEY_R: 1.2 g
  KIDNEY_TOTAL: 2.4 g
  LIVER: 13.2 g
  A/G: 1.9
  ALP: 678.2 IU/L
  ALT: 30 IU/L
  AST: 61.8 IU/L
  BUN: 19 mg/dL
  CRE: 0.5 mg/dL
  Ca: 10.6 mg/dL
  Cl: 105.6 meq/L
  DBIL: 0.028 mg/dL
  GLC: 204.6 mg/dL
  IP: 7.3 mg/dL
  K: 4.4 meq/L
  LDH: 80.2 IU/L
  Na: 142.6 meq/L
  PL: 138.6 mg/dL
  RALB: 3.8 g/dL
  TBIL: 0.4 mg/dL
  TC: 64.4 mg/dL
  TG: 120.6 mg/dL
  TP: 5.9 g/dL
  gamma-GTP: 0.6 IU/L
[4]
  TERMINAL_BW: 359.3 g
  APTT: 17 s
  Bas: 0%
  Eos: 1.6%
  Fbg: 215.6 mg/dL
  Hb: 15.4 g/dL
  Ht: 45.5%
  Lym: 82%
  MCH: 19.1 pg
  MCHC: 33.9%
  MCV: 56.4 fL
  Mono: 5.4%
  Neu: 11%
  PT: 11.2 s
  Plat: 114.3 x10_4/uL
  RBC: 807 x10_4/ul
  Ret: 8%
  WBC: 105.1 x10_2/uL
  KIDNEY_L: 1.3 g
  KIDNEY_R: 1.3 g
  KIDNEY_TOTAL: 2.6 g
  LIVER: 13.9 g
  A/G: 1.5
  ALP: 606.4 IU/L
  ALT: 32 IU/L
  AST: 61.2 IU/L
  BUN: 20.4 mg/dL
  CRE: 0.6 mg/dL
  Ca: 10.5 mg/dL
  Cl: 107 meq/L
  DBIL: 0 mg/dL
  GLC: 219.2 mg/dL
  IP: 6.1 mg/dL
  K: 4.3 meq/L
  LDH: 81.2 IU/L
  Na: 140.8 meq/L
  PL: 148 mg/dL
  RALB: 3.7 g/dL
  TBIL: 0.2 mg/dL
  TC: 76.2 mg/dL
  TG: 148.8 mg/dL
  TP: 6.1 g/dL
  gamma-GTP: 1.6 IU/L
[5]
  TERMINAL_BW: 236 g
  APTT: 17.7 s
  Bas: 0%
  Eos: 1%
  Fbg: 209.2 mg/dL
  Hb: 13.4 g/dL
  Ht: 39.9%
  Lym: 73.4%
  MCH: 21.9 pg
  MCHC: 33.7%
  MCV: 65 fL
  Mono: 8.4%
  Neu: 17%
  PT: 11.1 s
  Plat: 134.3 x10_4/uL
  RBC: 614.8 x10_4/ul
  Ret: 7.6%
  WBC: 100.6 x10_2/uL
  KIDNEY_L: 1 g
  KIDNEY_R: 1.1 g
  KIDNEY_TOTAL: 2.1 g
  LIVER: 11.5 g
  A/G: 2.3
  ALP: 965.4 IU/L
  ALT: 33 IU/L
  AST: 63.8 IU/L
  BUN: 17.2 mg/dL
  CRE: 0.5 mg/dL
  Ca: 11.1 mg/dL
  Cl: 104.4 meq/L
  DBIL: 0.022 mg/dL
  GLC: 198 mg/dL
  IP: 7.9 mg/dL
  K: 4.5 meq/L
  LDH: 103.4 IU/L
  Na: 140.6 meq/L
  PL: 140.6 mg/dL
  RALB: 4 g/dL
  TBIL: 0.3 mg/dL
  TC: 73 mg/dL
  TG: 82.8 mg/dL
  TP: 5.7 g/dL
  gamma-GTP: 2.4 IU/L
[6]
  TERMINAL_BW: 263.9 g
  APTT: 17.6 s
  Bas: 0%
  Eos: 0.8%
  Fbg: 219.6 mg/dL
  Hb: 14.1 g/dL
  Ht: 41.5%
  Lym: 79.6%
  MCH: 21.1 pg
  MCHC: 34.1%
  MCV: 62 fL
  Mono: 5.2%
  Neu: 14.2%
  PT: 11.2 s
  Plat: 133.9 x10_4/uL
  RBC: 669.2 x10_4/ul
  Ret: 5.7%
  WBC: 101.8 x10_2/uL
  KIDNEY_L: 1.1 g
  KIDNEY_R: 1.1 g
  KIDNEY_TOTAL: 2.2 g
  LIVER: 12.6 g
  A/G: 2.3
  ALP: 771.4 IU/L
  ALT: 33.2 IU/L
  AST: 63.4 IU/L
  BUN: 20.8 mg/dL
  CRE: 0.5 mg/dL
  Ca: 10.6 mg/dL
  Cl: 104.6 meq/L
  DBIL: 0 mg/dL
  GLC: 197 mg/dL
  IP: 8.1 mg/dL
  K: 4.7 meq/L
  LDH: 95 IU/L
  Na: 141.6 meq/L
  PL: 158.2 mg/dL
  RALB: 4.1 g/dL
  TBIL: 0.4 mg/dL
  TC: 76.2 mg/dL
  TG: 156.4 mg/dL
  TP: 5.8 g/dL
  gamma-GTP: 1.4 IU/L
[7]
  TERMINAL_BW: 307 g
  APTT: 16.7 s
  Bas: 0%
  Eos: 1%
  Fbg: 217.6 mg/dL
  Hb: 15 g/dL
  Ht: 43.7%
  Lym: 80.6%
  MCH: 20.2 pg
  MCHC: 34.3%
  MCV: 58.9 fL
  Mono: 5.6%
  Neu: 12.8%
  PT: 11.3 s
  Plat: 127.7 x10_4/uL
  RBC: 742.4 x10_4/ul
  Ret: 4.2%
  WBC: 122.9 x10_2/uL
  KIDNEY_L: 1.2 g
  KIDNEY_R: 1.2 g
  KIDNEY_TOTAL: 2.3 g
  LIVER: 13.1 g
  A/G: 2
  ALP: 804.6 IU/L
  ALT: 36 IU/L
  AST: 59.2 IU/L
  BUN: 19.2 mg/dL
  CRE: 0.5 mg/dL
  Ca: 11 mg/dL
  Cl: 105.2 meq/L
  DBIL: 0.028 mg/dL
  GLC: 207.4 mg/dL
  IP: 7.4 mg/dL
  K: 4.2 meq/L
  LDH: 103.2 IU/L
  Na: 142.2 meq/L
  PL: 150.8 mg/dL
  RALB: 3.9 g/dL
  TBIL: 0.4 mg/dL
  TC: 73 mg/dL
  TG: 116.8 mg/dL
  TP: 5.9 g/dL
  gamma-GTP: 0.6 IU/L
[8]
  TERMINAL_BW: 352 g
  APTT: 17.2 s
  Bas: 0%
  Eos: 1.6%
  Fbg: 212 mg/dL
  Hb: 15.7 g/dL
  Ht: 46.9%
  Lym: 80.4%
  MCH: 18.8 pg
  MCHC: 33.6%
  MCV: 55.9 fL
  Mono: 6%
  Neu: 12.4%
  PT: 11.3 s
  Plat: 126.5 x10_4/uL
  RBC: 839 x10_4/ul
  Ret: 7.1%
  WBC: 104.7 x10_2/uL
  KIDNEY_L: 1.3 g
  KIDNEY_R: 1.3 g
  KIDNEY_TOTAL: 2.6 g
  LIVER: 13.5 g
  A/G: 1.6
  ALP: 710 IU/L
  ALT: 30.2 IU/L
  AST: 64 IU/L
  BUN: 20 mg/dL
  CRE: 0.6 mg/dL
  Ca: 10.4 mg/dL
  Cl: 107 meq/L
  DBIL: 0.002 mg/dL
  GLC: 205.6 mg/dL
  IP: 6.4 mg/dL
  K: 4.3 meq/L
  LDH: 96.4 IU/L
  Na: 140.4 meq/L
  PL: 141.4 mg/dL
  RALB: 3.8 g/dL
  TBIL: 0.3 mg/dL
  TC: 69.4 mg/dL
  TG: 113.6 mg/dL
  TP: 6.1 g/dL
  gamma-GTP: 1.4 IU/L
